Patent US6509361B1, “1,5-Diaryl substituted pyrazoles as p38 kinase inhibitors” (Pharmacia Corporation, priority 2001, dated 2003)

What was measured:
human p38 kinase alpha = target: T1, human p38 kinase alpha (Homo sapiens, UniProt Q16539); assay: p38 Kinase Assay (in vitro; PHAS-I/32P-ATP format or EGFRP/33P-ATP format); type: biochemical; conditions: activated human p38 kinase alpha, 50 μM unlabeled ATP; table does not say which of the two assay formats
T1 construct: The coding region of the human p38a cDNA was obtained by PCR-amplification from RNA isolated from the human monocyte cell line THP.1; GST (N); made in house; host or cells: E. coli DH10B
T1 sequence (Q16539 whole entry): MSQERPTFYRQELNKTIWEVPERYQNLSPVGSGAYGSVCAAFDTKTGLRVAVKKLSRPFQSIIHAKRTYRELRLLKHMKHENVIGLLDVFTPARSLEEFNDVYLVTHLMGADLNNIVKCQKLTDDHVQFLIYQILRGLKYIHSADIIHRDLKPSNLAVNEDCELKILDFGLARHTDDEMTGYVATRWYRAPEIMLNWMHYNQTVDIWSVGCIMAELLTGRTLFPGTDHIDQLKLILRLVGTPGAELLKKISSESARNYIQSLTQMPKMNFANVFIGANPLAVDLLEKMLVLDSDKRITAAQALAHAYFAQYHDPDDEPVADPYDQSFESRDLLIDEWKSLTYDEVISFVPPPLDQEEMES
Procedure: The coding region of the human p38a cDNA was obtained by PCR-amplification from RNA isolated from the human monocyte cell line THP.1. First strand cDNA was synthesized from total RNA as follows: 2 μg of RNA was annealed to 100 ng of random hexamer primers in a 10 μl reaction by heating to 70° C. for 10 minutes followed by 2 minutes on ice. cDNA was then synthesized by adding 1 μl of RNAsin (Promega, Madison Wis.), 2 μl of 50 mM dNTP's, 4 μl of 5×buffer, 2 μl of 100 mM DTT and 1 μl (200 U) of Superscript II™ […] reverse transcriptase. Random primer, dNTP's and Superscript™ reagents were all purchased from Life-Technologies, Gaithersburg, Mass. The reaction was incubated at 42° C. for 1 hour. Amplification of p38 cDNA was performed by aliquoting 5 μl of the reverse transcriptase reaction into a 100 μl PCR reaction containing the following: 80 μl dH2O, 2 μl 50 mM dNTP's, 1 μl each of forward and reverse primers (50 pmol/μl), 10 μl of 10× buffer and 1 μl Expand™ polymerase (Boehringer Mannheim). The PCR primers incorporated Bam HI sites onto the 5′ and 3′ end of the amplified fragment, and were purchased from Genosys. The forward and reverse primers were 5′-[…]-3′ and 5′[…]-3′, respectively. The PCR amplification was carried out in a DNA Thermal Cycler (Perkin Elmer) by repeating 30 cycles of 94° C. for 1 minute, 60° C. for 1 minute and 68° C. for 2 minutes. After amplification, excess primers and unincorporated dNTP's were removed from the amplified fragment with a Wizard™ PCR prep (Promega) and digested with Bam HI (New England Biolabs). The Bam HI digested fragment was ligated into BamHI digested pGEX 2T plasmid DNA (PharmaciaBiotech) using T-4 DNA ligase (New England Biolabs) as described by T. Maniatis, Molecular Cloning: A Laboratory Manual, 2nd ed. (1989). The ligation reaction was transformed into chemically competent E. coli DH10B cells purchased from Life-Technologies following the manufacturer's instructions. Plasmid DNA was isolated from the resulting bacterial colonies using a Promega Wizard™ miniprep kit. Plasmids containing the appropriate Bam HI fragment were sequenced in a DNA Thermal Cycler (Perkin Elmer) with Prism™ (Applied Biosystems Inc.). cDNA clones were identified that coded for both human p38a isoforms (Lee et al. Nature 372, 739). One of the clones which contained the cDNA for p38a-2 (CSBP-2) inserted in the cloning site of pGEX 2T, 3′ of the GST coding region was designated pMON 35802. The sequence obtained for this clone is an exact match of the cDNA clone reported by Lee et al. This expression plasmid allows for the production of a GST-p38a fusion protein.
Expression of Human p38a:
GST/p38a fusion protein was expressed from the plasmid pMON 35802 in E. coli, stain DH10B (Life Technologies, Gibco-BRL). Overnight cultures were grown in Luria Broth (LB) containing […] ampicillin. The next day, 500 ml of fresh LB was inoculated with 10 ml of overnight culture, and grown in a 2 liter flask at 37° C. with constant shaking until the culture reached an absorbance of 0.8 at 600 nm. Expression of the fusion protein was induced by addition of isopropyl b-D-thiogalactosidse (IPTG) to a final concentration of 0.05 mM. The cultures were shaken for three hours at room temperature, and the cells were harvested by centrifugation. The cell pellets were stored frozen until protein purification.
Purification of p38 Kinase-α:
All chemicals were from Sigma Chemical Co. unless noted. Twenty grams of E. coli cell pellet collected from five 1 L shake flask fermentations was resuspended in a volume of PBS (140 mM NaCl, 2.7 mM KCl, 10 mM Na2HPO4, 1.8 mM KH2PO4, pH 7.3) up to 200 ml. The cell suspension was adjusted to 5 mM DTT with 2 M DTT and then split equally into five 50 ml Falcon conical tubes. The cells were sonnicated (Ultrasonics model W375) with a 1 cm probe for 3×1 minutes (pulsed) on ice. […]

[1] = tested on: TNF-a (LPS-stimulated human peripheral blood mononuclear cells); assay: TNF Cell Assay: LPS stimulation of human PBM cells, TNF-a by ELISA; type: cell-based; conditions: PBMC, LPS 20 ng/ml, overnight 37° C., compound 10-0.41 μM
Procedure: Method of Isolation of Human Peripheral Blood Mononuclear Cells:
Human whole blood was collected in Vacutainer tubes containing EDTA as an anticoagulant. A blood sample (7 ml) was carefully layered over 5 ml PMN Cell Isolation Medium (Robbins Scientific) in a 15 ml round bottom centrifuge tube. The sample was centrifuged at 450-500×g for 30-35 minutes in a swing out rotor at room temperature. After centrifugation, the top band of cells were removed and washed 3 times with PBS w/o calcium or magnesium. The cells were centrifuged at 400×g for 10 minutes at room temperature. The cells were resuspended in Macrophage Serum Free Medium (Gibco BRL) at a concentration of 2 million cells/ml.
LPS Stimulation of Human PBMS:
PBM cells (0.1 ml, 2 million/ml) were co-incubated with 0.1 ml compound (10-0.41 μM, final concentration) for 1 hour in flat bottom 96 well microtiter plates. Compounds were dissolved in DMSO initially and diluted in TCM for a final concentration of 0.1% DMSO. LPS (Calbiochem, 20 ng/ml, final concentration) was then added at a volume of 0.010 ml. Cultures were incubated overnight at 37° C. Supernatants were then removed and tested by ELISA for TNF-a and IL1-b. Viability was analyzed using MTS. After 0.1 ml supernatant was collected, 0.020 ml MTS was added to remaining 0.1 ml cells. The cells were incubated at 37° C. for 2-4 hours, then the O.D. was measured at […].

[2] = tested on: TNF-α released by U937 cells (human histiocytic lymphoma cell line); assay: U937 Cell Assay: LPS stimulation of TNF production by U937 cells, ELISA; type: cell-based; conditions: U-937, differentiated U937 cells, LPS 100 ng/ml, 4 hour incubation
Procedure: Maintenance and Differentiation of the U937 Human Histiocytic Lymphoma Cell Line:
U937 cells (ATCC) were propagated in RPMI 1640 containing 10% fetal bovine serum, 100 IU/ml penicillin, 100 μg/ml streptomycin, and 2 mM glutamine (Gibco). Fifty million cells in 100 ml media were induced to terminal monocytic differentiation by 24 hour incubation with 20 ng/ml phorbol 12-myristate 13-acetate (Sigma). The cells were washed by centrifugation (200×g for 5 min) and resuspended in 100 ml fresh medium. After 24-48 hours, the cells were harvested, centrifuged, and resuspended in culture medium at 2 million cells/ml.
LPS Stimulation of TNF Production by U937 Cells:
U937 cells (0.1 ml, 2 million/ml) were incubated with 0.1 ml compound (0.004-50 μM, final concentration) for 1 hour in 96 well microtiter plates. Compounds were prepared as 10 mM stock solutions in DMSO and diluted in culture medium to yield a final DMSO concentration of 0.1% in the cell assay. LPS (E. coli, 100 ng/ml final concentration) was then added at a volume of 0.02 ml. After 4 hour incubation at 37° C., the amount of TNF-α released in the culture medium was quantitated by ELISA. Inhibitory potency is expressed as IC50 (μM).

Row | IC50 (human p38 kinase alpha) [µM] | IC50 [1] [µM] | melting point [°C] | IC50 [2] [µM] | Structure (SMILES)
1 | 37.2 | 4 | 131.11 |  | Cc1cnn(-c2cccc(F)c2)c1-c1ccncc1 [Example 2]
2 | > 100 | > 10 |  |  | Cc1cnn(Cc2ccccc2)c1-c1ccncc1 [Example 4]
3 | 1.4 | 0.2 | 148.2 |  | Cc1ccc(-n2nc(C)cc2-c2ccnc(NCCO)c2)cc1 [Example 5]
4 | 0.4 | 1.5 | 108.94 |  | Cc1ccc(-n2nc(C)cc2-c2ccnc(NCc3cccnc3)c2)cc1 [Example 6]
5 | 0.01 | 1.1 | 102.1 |  | Cc1ccc(-n2nc(C)cc2-c2ccnc(NCc3ccccc3)c2)cc1 [Example 7]
6 | > 100 | > 10 |  |  | Cc1ccc(-n2nc(C)cc2-c2ccnc(N(C)C)c2)cc1 [Example 10]
7 | 0.05 | 0.1 |  | 0.86 | Cc1cc(-c2ccnc(NCCc3ccccc3)c2)n(-c2ccc(Cl)cc2)n1 [Example 13]
8 | > 100 | > 10 | 94.38 |  | Cc1ccc(-n2nc(C)cc2-c2cccc(N)c2)cc1 [Example 14]
9 | > 100 | > 10 |  | ≥ 10 | CCNc1cc(-c2ccncc2)n(-c2ccc(F)cc2)n1 [Example 15]
10 | 0.002 | 0.1 |  |  | Cc1cccc(-n2nc(C)cc2-c2ccnc(NCc3ccccc3)c2)c1 [Example 19, 2-(Benzylamino)-4-[1-(3-methylphenyl)-3-methyl-1H-pyrazol-5-yl]pyridine]
11 |  |  | 94 to 96 |  | Cc1cc(-c2ccnc(NCc3ccccc3)c2)n(-c2cccc(F)c2)n1 [Example 20, 2-(Benzylamino)-4-[1-(3-fluorophenyl)-3-methyl-1H-pyrazol-5-yl]pyridine]
12 | 0.35 | 0.5 | 124 to 125 |  | Cc1cccc(-n2nc(C)cc2-c2ccnc(N)c2)c1 [Example 21, 2-Amino-4-[1-(3-methylphenyl)-3-methyl-1H-pyrazol-5-yl]pyridine]
13 | 2.24 | 0.8 |  |  | Cc1cccc(-n2nc(C)cc2-c2ccnc(N(C)CCc3ccccc3)c2)c1 [Example 25, 2-(N-Methylphenylethylamino)-4-[1-(3-methylphenyl)-3-methyl-1H-pyrazol-5-yl]pyridine]
14 | 0.024 | 10 |  |  | Fc1ccc(-n2nccc2-c2ccnc(NCCc3ccccc3)c2)cc1 [Example 30, 2-(Phenylethylamino)-4-[1-(4-fluorophenyl)-1H-pyrazol-5-yl]pyridine]
15 |  | 5 | 193 to 195 |  | Cc1cccc(-n2nc(C)cc2-c2ccnc(C(N)=O)c2)c1 [Example 33, {4-[1-(3-Methylphenyl)-3-methyl-1H-pyrazol-5-yl]}-2-pyridine-2-carboxamide]
16 | 44 |  | 168 to 170 |  | Cc1cc(-c2ccnc(C(N)=O)c2)n(-c2ccc(F)cc2)n1 [Example 34, {4-[1-(4-Fluorophenyl)-3-methyl-1H-pyrazol-5-yl]}pyridine-2-carboxamide]
17 | 29.9 | > 10 | 140 to 142 |  | Cc1cccc(-n2nc(C)cc2-c2ccnc(S(C)(=O)=O)c2)c1 [Example 36, 2-(Methylsulfonyl)-4-[1-(3-methylphenyl)-3-methyl-1H-pyrazol-5-yl]pyridine]
18 | 85 | 2.2 | 134 to 135 |  | Cc1cc(-c2ccnc(N=[N+]=[N-])c2)n(-c2cccc(F)c2)n1 [Example 37, {4-[1-(3-Fluorophenyl)-3-methyl-1H-pyrazol-5-yl]}pyridine-2-azide]
19 | 0.219 | 0.6 |  |  | Cc1cc(-c2ccnc(NCc3cccnc3)c2)n(-c2cccc(F)c2)n1 [Example 38, 2-(3-Pyridylmethylamino)-4-[1-(3-fluorophenyl)-3-methyl-1H-pyrazol-5-yl]pyridine]
20 |  |  | 93 to 94 |  | CCCc1c[nH][n+](-c2cccc(F)c2)c1-c1ccncc1 [Example 39]
21 |  |  | 109 to 110 |  | CCc1c[nH][n+](-c2cccc(F)c2)c1-c1ccncc1 [Example 40]
22 | 14 | 2.9 | 100.07 |  | Cc1ccc(-n2nc(C)cc2-c2ccnc(Cl)c2)cc1 [Example 41, 2-chloro-4-[3-methyl-1-(4-methylphenyl)-1H-pyrazol-5-yl]pyridine]
23 | 2.68 |  |  | ≥ 10 | COC(=O)c1cnn(-c2ccc(F)cc2)c1-c1ccncc1 [Example 42, Methyl 1-(4-Fluorophenyl)-5-(4-pyridinyl)-1H-pyrazole-4-carboxylate]
24 | 65.1 |  |  | ≥ 10 | O=C(O)c1cnn(-c2ccc(F)cc2)c1-c1ccncc1 [Example 43]
25 | 67.7 |  |  | > 10 | Cc1cc(-c2ccnc(Cl)c2)n(-c2cccc(F)c2)n1 [Example 46, 2-Chloro-4-[1-(3-fluorophenyl)-3-methyl-1H-pyrazol-5-yl]pyridine]
